Here are results for eight compounds from ChEMBL document CHEMBL4020793 (Bioorg Med Chem Lett, 2017).

As usually defined, the IC50 is the concentration needed to halve the response being measured.

Format in all cases: functional, cell-based
For experiment [1], the system named is HCT-116/VM46. Kind of experiment: Antiproliferative activity against vinblastine-resistant human HCT116/VM46 cells assessed as cell viability after 72 hrs by MTS assay. Particulars: HCT-116/VM46, 72 h.
The subject of experiment [2] is HCT-116. As to the kind of experiment: Antiproliferative activity against human HCT116 cells assessed as cell viability after 72 hrs by MTS assay. Conditions: HCT-116, 72 h. For orientation: Tetrazolium assays rely on reduction of a dye to a coloured formazan, in cell work by metabolically active cells.
The subject of experiment [3] is L1210. As to the kind of experiment: Antiproliferative activity against mouse L1210 cells assessed as cell viability after 72 hrs by MTS assay. Conditions: L1210, 72 h.

Take `CC[C@]12C=CCN3CC[C@@]4(c5cc([C@@]6(C(=O)OC)C[C@@H]7CN(CCc8c6[nH]c6ccccc86)C[C@](O)(CCO)C7)c(OC)cc5N(C)[C@H]4[C@@](O)(C(=O)OC)[C@@H]1OC(C)=O)[C@@H]32`: the IC50 in experiment [1], in experiment [2] and in experiment [3] was greater than 1 µM each time.

Turning to `CCCC[C@]1(O)C[C@H]2CN(CCc3c([nH]c4ccccc34)[C@@](C(=O)OC)(c3cc4c(cc3OC)N(C)[C@H]3[C@@](O)(C(=O)OC)[C@H](OC(C)=O)[C@]5(CC)C=CCN6CC[C@]43[C@@H]65)C2)C1`, the figures for the IC50 in experiment [1], in experiment [2] and in experiment [3] were greater than 1 µM, 0.79 µM and 0.48 µM, respectively.

With `CC[C@]12C=CCN3CC[C@@]4(c5cc([C@@]6(C(=O)OC)C[C@@H]7CN(CCc8c6[nH]c6ccccc86)C[C@@]6(O)CCCC[C@@H]76)c(OC)cc5N(C)[C@H]4[C@@](O)(C(=O)OC)[C@@H]1OC(C)=O)[C@@H]32`, the IC50 in experiment [1] was determined as 0.06 µM; in experiment [2], 0.0007 µM; in experiment [3], 0.0006 µM.

For `CCC[C@]1(O)C[C@H]2CN(CCc3c([nH]c4ccccc34)[C@@](C(=O)OC)(c3cc4c(cc3OC)N(C)[C@H]3[C@@](O)(C(=O)OC)[C@H](OC(C)=O)[C@]5(CC)C=CCN6CC[C@]43[C@@H]65)C2)C1`, the IC50 was greater than 1 µM in experiment [1], 0.42 µM in experiment [2] and 0.3 µM in experiment [3].

With `CC[C@]12C=CCN3CC[C@@]4(c5cc([C@@]6(C(=O)OC)C[C@@H]7CN(CCc8c6[nH]c6ccccc86)C[C@@]6(O)CCCC[C@H]76)c(OC)cc5N(C)[C@H]4[C@@](O)(C(=O)OC)[C@@H]1OC(C)=O)[C@@H]32`, the values for the IC50 in experiment [1], in experiment [2] and in experiment [3] were 0.2 µM, 0.006 µM and 0.006 µM, respectively.

For `CC[C@]12C=CCN3CC[C@@]4(c5cc([C@@]6(C(=O)OC)C[C@@H]7CN(CCc8c6[nH]c6ccccc86)C[C@](O)(CCF)C7)c(OC)cc5N(C)[C@H]4[C@@](O)(C(=O)OC)[C@@H]1OC(C)=O)[C@@H]32`, the IC50 in experiment [1] amounted to 0.42 µM; in experiment [2] it was 0.0063 µM; in experiment [3], 0.0075 µM.

For the compound `CC[C@]12C=CCN3CC[C@@]4(c5cc([C@@]6(C(=O)OC)C[C@@H]7CN(CCc8c6[nH]c6ccccc86)C[C@](O)(CCC#N)C7)c(OC)cc5N(C)[C@H]4[C@@](O)(C(=O)OC)[C@@H]1OC(C)=O)[C@@H]32`, the IC50 in experiment [1] was determined as 8 µM; in experiment [2], 0.08 µM; in experiment [3], 0.08 µM.

Turning to `CC[C@]12C=CCN3CC[C@@]4(c5cc([C@@]6(C(=O)OC)C[C@@H]7CN(CCc8c6[nH]c6ccccc86)C[C@](O)(CCN=[N+]=[N-])C7)c(OC)cc5N(C)[C@H]4[C@@](O)(C(=O)OC)[C@@H]1OC(C)=O)[C@@H]32`, the figures for the IC50 in experiment [1], in experiment [2] and in experiment [3] were 3 µM, 0.07 µM and 0.065 µM, respectively.
